Assay results from patent US6642434B1, “Transgenic plants with γ-tocopherol methyltransferase” (University of Community College System of Nevada, priority 1997, dated 2003).

Assays:
[1] = molecular target: T1, Arabidopsis γ-tocopherol methyltransferase (165H5T7) (Arabidopsis thaliana, UniProt Q9ZSK1); assay: γ-TMT assay with Arabidopsis 165H5T7 protein expressed in E. coli; format: biochemical; conditions: for use as substrate (methylation) by Arabidopsis γ-TMT: 5 mM substrate, pH 8.5, 14C-methyl-SAM, 30 minutes room temperature
T1 construct: made in house; host or cells: E. coli BL21(DE3), pET3D vector; Triton X-100 supernatant of the lysate
T1 sequence (Q9ZSK1 51-348): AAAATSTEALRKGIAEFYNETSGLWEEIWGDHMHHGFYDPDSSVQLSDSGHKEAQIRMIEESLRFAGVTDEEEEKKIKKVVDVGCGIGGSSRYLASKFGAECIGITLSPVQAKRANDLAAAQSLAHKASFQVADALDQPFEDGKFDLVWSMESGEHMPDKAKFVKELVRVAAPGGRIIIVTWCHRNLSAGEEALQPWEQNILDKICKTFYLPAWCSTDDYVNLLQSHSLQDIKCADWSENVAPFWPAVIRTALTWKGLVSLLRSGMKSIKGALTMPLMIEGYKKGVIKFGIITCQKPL
Procedure: (§1) The p011698-1 and p011898-1 constructs were used to transform the E. coli T7 expression host BL21(DE3). To generate protein for γ-TMT assays, one liter cultures of transformed host cells containing one of the constructs were grown in Luria broth containing 100 mg/liter ampicillin. Each culture was started at an optical density at 600 nm (OD600) of 0.1 and incubated in a shaking incubator at 28° C. until the culture reached an OD600 of 0.6, at which time isopropyl-, β-D-thiogalactopyranoside (IPTG) was added to each culture to obtain a final concentration of 0.4 mM IPTG. Each culture was incubated for an additional 3 hours at 28° C. and the cells were harvested by centrifugation at 8,000 g. The cell pellets were then resupended in 10 ml of 10 mM HEPES (pH 7.8), 5 mM DTT, 0.24 M sorbitol, 1 mM PMSF. The cells were lysed by sonication with a micro-tip sonicator using four 10-second pulses. Triton×100 was added to each homogenate to a final concentration of 1%. The homogenates were incubated on ice for 30 minutes, and subjected to centrifugation at 30,000 g for 30 minutes at 4° C. The supernatants of these extracts were assayed for γ-tocopherol methyltransferase activity as follows.
(§2) The γ-TMT assays were performed in 250 μl volumes containing 50 mM Tris (pH 7.5 for the Synechocystis and pH 8.5 for the Arabidopsis enzyme), 5 mM DTT, 5 mM γ- or δ-tocopherol, and 0.025 μCi (55 μCi/mmole) (^14C-methyl)-S-adenosylmethionine. Reaction mixtures were incubated at room temperature for 30 minutes. The reactions were stopped by adding of 1 ml of 2:1 (v:v) CHCl3: methanol containing 1 mg/ml butylated hydroxytolulene (BHT) and 250 μl of 0.9% NaCl in water, and vortexing. The samples were centrifuged to separate the phases. The CHCl3 (lower) phase was transferred to a fresh tube containing […] of α-tocopherol and the CHCl3 was then removed under vacuum in a speed-vac. The dried lipid fraction was resuspended in 50 μl ethyl acetate containing 1 mg/ml BHT. The lipid extracts were fractionated on silica 60 TLC plates in dichloromethane. Tocopherols were then identified by co-migration with authentic tocopherol standards after staining the plate with Emmerie-Engels solution (0.1% FeCl3, 0.25% 2,2′-dipyridyl in ethanol). The band corresponding to α-tocopherol was scraped from the TLC plate and the amount of radioactive material present was determined by scintillation counting.
(§3) The Synechocystis and Arabidopsis γ-tocopherol methyltransferases were tested for activity using several different methyl-substituted tocopherol substrates. […] The two enzymes were unable to use tocol, 5,7-diemethyltocol, β-tocopherol, and γ-tocotrienol as substrates. […] The Synechocystis and Arabidopsis γ-TMTs appear to require substrates with a methyl-group present on the 8 position of the chromanol ring and a fully saturated prenyl-tail for activity.

[2] = test system: Synechocystis γ-tocopherol methyltransferase (SLR0089); assay: γ-TMT assay with Synechocystis SLR0089 protein expressed in E. coli; format: biochemical, Synechocystis PCC6803; conditions: for use as substrate (methylation) by Synechocystis γ-TMT: 5 mM substrate, pH 7.5, 14C-methyl-SAM, 30 minutes room temperature
Procedure: as §1, §2, §3

SMILES	use as substrate (methylation) by Arabidopsis γ-TMT [1]	use as substrate (methylation) by Synechocystis γ-TMT [2]	relative activity of Arabidopsis γ-TMT toward γ- and δ-tocopherol [1]	relative activity of Synechocystis γ-TMT toward γ- and δ-tocopherol [2]
CC(C)CCCC(C)CCCC(C)CCCC1(C)CCc2cc(O)ccc2O1 (stereo not shown) [tocol]	unable to use	unable to use	–	–
Cc1cc2c(c(C)c1O)CCC(C)(CCCC(C)CCCC(C)CCCC(C)C)O2 (stereo not shown) [5,7-diemethyltocol]	unable to use	unable to use	–	–
CC(C)=CCC/C(C)=C/CC/C(C)=C/CC[C@]1(C)CCc2cc(O)c(C)c(C)c2O1 [γ-tocotrienol]	unable to use	unable to use	–	–
Cc1c(O)cc2c(c1C)O[C@](C)(CCC[C@H](C)CCC[C@H](C)CCCC(C)C)CC2 [γ-tocopherol]	able to convert γ-tocopherol to α-tocopherol	able to convert γ-tocopherol to α-tocopherol	greater activity with γ-tocopherol as the substrate than with the δ-tocopherol substrate	equally active toward γ-tocopherol and δ-tocopherol
Cc1cc(O)cc2c1O[C@](C)(CCC[C@H](C)CCC[C@H](C)CCCC(C)C)CC2 [δ-tocopherol]	able to specifically convert δ-tocopherol to β-tocopherol	able to specifically convert δ-tocopherol to β-tocopherol	greater activity with γ-tocopherol as the substrate than with the δ-tocopherol substrate	equally active toward γ-tocopherol and δ-tocopherol
Cc1cc(O)c(C)c2c1O[C@](C)(CCC[C@H](C)CCC[C@H](C)CCCC(C)C)CC2 [β-tocopherol]	unable to use	unable to use	–	–
